What was measured:
paxillin = biological target: T1, paxillin (Mus musculus, UniProt Q8VI36); experiment: Paxillin displacement in FAK-deficient MEFs (immunostaining, confocal microscopy); format: cell-based
T1 construct: endogenous in cells; host or cells: FAK-/- mouse embryonic fibroblasts

[1] = tested on: MDA-MB-231 breast cancer cells; experiment: In vitro wound healing assay; format: cell-based, human; conditions: 3 µM, 25 h, serum-containing growth medium
Procedure: Image J was used to automatically quantify FAK-containing focal adhesions due to local maxima of fluorescence intensity in the GFP-channel (5 to 70 pixel). The number of cells was automatically counted in the Hoechst channel. To test reproducibility of the system 40 control wells were quantified wherein four positions for each well were imaged. […] GFP-FAK mouse embryonic fibroblasts were seeded on fibronectin and incubated for 1 h with the indicated concentrations of the small compounds, respectively. […] GFP-FAK mouse embryonic fibroblasts were seeded on fibronectin and serum-starved overnight. The indicated concentrations of Mb31 were applied for 30 min. Cells were lysed and analyzed for paxillin and FAK protein level as well as FAK Tyr397 phosphorylation. […] The purified kinase domain of FAK was incubated with increasing amounts of Mb31 for 1 h at 30°C together with poly-Glu-Tyr as a FAK substrate. […] Serum-starved GFP-FAK mouse embryonic fibroblasts were stimulated with normal growth medium and incubated for 5 h with the indicated concentrations of the small molecule compounds, respectively. Cell viability was assessed by MTT assay. […] GFP-FAK MEFs were seeded on fibronectin and serum-starved overnight. Migration was stimulated by replacing the medium with normal growth medium. Migration of single cells was tracked for 8 h in 30 min intervals. Migration was recorded from cells that were cultured without serum (A), with serum (B) or with serum in the presence of 3 µM Mb31 (C). […] (A) GFP-FAK MEFs were seeded and serum-starved as in Figure 10. Cell migration was stimulated with normal growth medium and single cells were tracked for 5 h. (B) Mb31 was added and the same cells were tracked for additional 5 h. (C) Mean velocities of differently treated cells were plotted over time. […] NIH-v-Src fibroblasts were seeded on 2 µg/ml FN in DMEM/0.5%BSA and stimulated with 10 ng/ml EGF or kept unstimulated. […] Mouse embryonic fibroblasts (MEFs) were transfected with talin-mCherry and talin dynamics analyzed in focal adhesions using fluorescence recovery after photobleaching (FRAP). Cells were left untreated (A) or treated with 10 µM of Mb31 (B). In untreated cells, the mCherry intensity recovered, indicating replacement of bleached by non-bleached talin and therefore turnover of talin at focal adhesions. […] (C) Wound closure was microscopically analyzed and evaluated using ImageJ software.
To determine if the migration of transformed cells can be blocked by FLocker1 and related compounds, human breast carcinoma cells (MDA-MB-231) were used in in vitro wound healing assays. […] The ability of the cells to migrate and close the wound space was monitored by microscopy and quantified (Figure 18B and C).

FAK = experiment: Immunoblot of FAK and paxillin protein level and FAK Tyr397 phosphorylation; format: cell-based, mouse; conditions: serum-starved GFP-FAK MEFs, increasing concentrations, 30 min
Procedure: Image J was used to automatically quantify FAK-containing focal adhesions due to local maxima of fluorescence intensity in the GFP-channel (5 to 70 pixel). The number of cells was automatically counted in the Hoechst channel. To test reproducibility of the system 40 control wells were quantified wherein four positions for each well were imaged. […] GFP-FAK mouse embryonic fibroblasts were seeded on fibronectin and incubated for 1 h with the indicated concentrations of the small compounds, respectively. […] GFP-FAK mouse embryonic fibroblasts were seeded on fibronectin and serum-starved overnight. The indicated concentrations of Mb31 were applied for 30 min. Cells were lysed and analyzed for paxillin and FAK protein level as well as FAK Tyr397 phosphorylation. […] The purified kinase domain of FAK was incubated with increasing amounts of Mb31 for 1 h at 30°C together with poly-Glu-Tyr as a FAK substrate. […] Cell viability was assessed by MTT assay. […] Migration was recorded from cells that were cultured without serum (A), with serum (B) or with serum in the presence of 3 µM Mb31 (C). […] Mouse embryonic fibroblasts (MEFs) were transfected with talin-mCherry and talin dynamics analyzed in focal adhesions using fluorescence recovery after photobleaching (FRAP). […] (C) Wound closure was microscopically analyzed and evaluated using ImageJ software. […]

NIH-v-Src fibroblasts = experiment: EGF-stimulated cell migration of transformed cells; format: cell-based; conditions: 10 ng/ml EGF, tracked 6 h before and 6 h after addition
Procedure: Image J was used to automatically quantify FAK-containing focal adhesions due to local maxima of fluorescence intensity in the GFP-channel (5 to 70 pixel). The number of cells was automatically counted in the Hoechst channel. To test reproducibility of the system 40 control wells were quantified wherein four positions for each well were imaged. […] GFP-FAK mouse embryonic fibroblasts were seeded on fibronectin and incubated for 1 h with the indicated concentrations of the small compounds, respectively. […] GFP-FAK mouse embryonic fibroblasts were seeded on fibronectin and serum-starved overnight. The indicated concentrations of Mb31 were applied for 30 min. Cells were lysed and analyzed for paxillin and FAK protein level as well as FAK Tyr397 phosphorylation. […] The purified kinase domain of FAK was incubated with increasing amounts of Mb31 for 1 h at 30°C together with poly-Glu-Tyr as a FAK substrate. […] Serum-starved GFP-FAK mouse embryonic fibroblasts were stimulated with normal growth medium and incubated for 5 h with the indicated concentrations of the small molecule compounds, respectively. Cell viability was assessed by MTT assay. […] GFP-FAK MEFs were seeded on fibronectin and serum-starved overnight. Migration was stimulated by replacing the medium with normal growth medium. Migration of single cells was tracked for 8 h in 30 min intervals. Migration was recorded from cells that were cultured without serum (A), with serum (B) or with serum in the presence of 3 µM Mb31 (C). […] (A) GFP-FAK MEFs were seeded and serum-starved as in Figure 10. Cell migration was stimulated with normal growth medium and single cells were tracked for 5 h. […] Mouse embryonic fibroblasts (MEFs) were transfected with talin-mCherry and talin dynamics analyzed in focal adhesions using fluorescence recovery after photobleaching (FRAP). […] (C) Wound closure was microscopically analyzed and evaluated using ImageJ software.
To further determine whether Mb31 interferes with cell motility, GFP-FAK MEFs were serum-stimulated and migration was quantified on a single cell basis (Figures 11 and 12). […]

T1 sequence (Q8VI36 whole entry): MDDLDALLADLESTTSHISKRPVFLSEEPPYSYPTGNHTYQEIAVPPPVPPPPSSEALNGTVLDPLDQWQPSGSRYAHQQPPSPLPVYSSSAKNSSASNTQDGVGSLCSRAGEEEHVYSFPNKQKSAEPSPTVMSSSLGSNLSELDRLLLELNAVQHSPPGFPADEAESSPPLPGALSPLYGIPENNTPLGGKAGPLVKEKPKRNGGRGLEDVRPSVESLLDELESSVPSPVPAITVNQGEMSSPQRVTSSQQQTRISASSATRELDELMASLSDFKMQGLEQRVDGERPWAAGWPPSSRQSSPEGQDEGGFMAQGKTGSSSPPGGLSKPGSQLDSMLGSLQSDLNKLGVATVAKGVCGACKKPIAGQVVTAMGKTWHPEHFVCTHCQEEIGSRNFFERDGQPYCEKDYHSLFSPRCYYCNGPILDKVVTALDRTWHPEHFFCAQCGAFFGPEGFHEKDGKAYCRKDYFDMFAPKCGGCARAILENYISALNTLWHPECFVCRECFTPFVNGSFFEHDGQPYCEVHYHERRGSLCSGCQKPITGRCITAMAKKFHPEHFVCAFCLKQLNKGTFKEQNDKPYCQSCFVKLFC

paxillin displacement in FAK knockout MEFs (paxillin; 30 min): efficiently displaced
concentration efficiently displacing paxillin (paxillin; FAK-/- MEF cells, 30 min, 1, 10, or 20 µM): > 1 µM
SMILES: O=[N+]([O-])C=Cc1cc(Br)cs1 [FootLocker 1, 4-bromo-2-(2-nitrovinyl)thiophene]
migration of cancer cells / wound closure [1]: retarded the migration of the cancer cells
Y397 phosphorylation of FAK (FAK): not influenced
degradation of FAK and paxillin (protein levels) (FAK): Neither for FAK nor for paxillin was any degradation observed
migration of EGF-stimulated cells (NIH-v-Src fibroblasts): efficiently inhibit the migration

— patent publication EP2982368A1, “Small molecule compounds displacing focal adhesion core components” (Universität Konstanz, priority 2014, dated 2016)
